# System: HSCs activation (α-SMA, vimentin, desmin)
# Test: CCl4 mouse model: HSC activation markers in liver
# Assay type: in vivo, C57BL/6 mice
# Conditions: CCl4 mice
# Protocol: C57BL/6 mice (20 ± 2 g) were obtained from Hangzhou Medical College Experimental Animal Center (Hangzhou, China). The animals were maintained under controlled temperature (22°C ± 1°C), humidity (50%), and light (12 h light/12 h dark). The animals were fed a standard laboratory diet and provided with free access to tap water. All animals received humane care according to institutional animal care guidelines approved by the Experimental Animal Ethical Committee of Hangzhou Medical College. Forty mice were randomly divided into six groups: (1) vehicle control (n = 7); (2) CCl4 model (n = 7); (3) CCl4 + LIN (20 mg/kg) (n = 7); (4) CCl4 + LIN (40 mg/kg) (n = 7); (5) LIN (40 mg/kg) (n = 7); and (6) CCl4 + silymarin (SIL) (200 mg/kg) (n = 5). LIN and SIL were dissolved in 0.5% CMC-Na solution. Mice were administered LIN or SIL (intragastric administration, i.g.) once per day and CCl4 (intraperitoneal injection, i.p.; mixed 1:3 in olive oil, 2 mL/kg) twice per week for 4 weeks. Mice in the vehicle control group received olive oil (i.p. twice a week, 4 weeks) and 0.5% CMC-Na (i.g. every day, 4 weeks). After treatment, the mice were sacrificed, and plasma and liver tissues were collected and further analysed.
# Total RNA was extracted from liver tissues and LX-2 cells using the TRIzol reagent. cDNA was synthesised using a PrimeScript RT Master Mix kit. Real-time PCR was performed using SYBR Green premix according to the manufacturer’s instructions. Relative expression of target genes was normalised to actin, analysed by the delta-delta-CT method and given as a ratio compared with the vehicle control. Primer sequences used in this study are listed in Supplementary Material.
# The formalin-fixed and de-paraffinized liver sections (5 μm) were incubated with 5% bovine serum albumin to minimise non-specific binding, and then incubated with α-SMA antibody (Santa Cruz, SC-53142) in a humidified chamber overnight at 4°C. After washing thrice with PBS, the sections were incubated with FITC-conjugated secondary antibody (SH0058; Skyhobio) for 1 h. After washing thrice, the liver sections were incubated with DAPI for 10 min. Images were captured using an inverted microscope (IX81; Olympus, Japan).
# Paraffin-embedded liver sections were deparaffinized in xylene, rehydrated in a gradient of ethanol to distilled water, and then quenched by 3% hydrogen peroxide and then incubated with 5% bovine serum albumin, followed by incubation with vimentin antibody (ABclonal, A19607) at 4°C overnight, and further detected by using DAKO EnVision detection kits (Agilent Technologies Co., Ltd. K346811). The sections were counterstained with haematoxylin. Images were taken using an inverted microscope, and vimentin-positive cells were counted manually using Image-Pro Plus 6 in three random fields per sample (each group contained three samples).
# Liver proteins were isolated by using a lysis buffer containing 50 mM Tris-HCl (pH7.5), 150 mM NaCl, 1 mM EDTA, 20 mM NaF, 0.5% NP-40, 10% glycerol, 1 mM phenylmethylsulphonyl fluoride, 10 μg/mL aprotinin, 10 μg/mL leupeptin, and 10 μg/mL pepstatin. The supernatants were collected after centrifugation at 3,000 g for 10 min at 4°C, and the protein concentration of each sample was determined and normalised to the same protein concentration. Protein samples were separated by sodium dodecyl sulphate-polyacrylamide gel electrophoresis and transferred onto polyvinylidene fluoride membranes. The membranes were incubated with the indicated primary and secondary antibodies, and the proteins in the membranes were visualised using a chemiluminescence kit. TGF-® antibody (CST, 3711), Smad 2/3 antibody (CST, 8685), p-Smad 2/3 antibody (CST, 8828), anti-α-SMA antibody (Santa Cruz, SC-53142), vimentin antibody (ABclonal, A19607), desmin antibody (ABclonal, A3736), GAPDH antibody (Beyotime, AF0006), and SHP2 antibody (CST, 3397). […]
# [1] = LIN 20 mg/kg, Western blot, p < 0.05
smiles,measurement,setting,value
"C/C1=C\CCC2=C[C@@H](OC2=O)c2c(C)coc2C1 [LIN, linderalactone]",liver α-SMA accumulation (immunofluorescence staining),LIN,largely inhibited
same,protein expression of hepatic Des,[1],significant reduction
same,protein expression of hepatic Vim,[1],significant reduction
same,protein expression of hepatic α-SMA,[1],significant reduction
same,hepatic mRNA expression of Des,LIN 20 and 40 mg/kg,significantly reduced
same,hepatic mRNA expression of Vim,LIN 20 and 40 mg/kg,significantly reduced
same,hepatic mRNA expression of acta2,LIN 20 and 40 mg/kg,significantly reduced

# Reference: paper PMC9946977, “Identification of linderalactone as a natural inhibitor of SHP2 to ameliorate CCl4-induced liver fibrosis” (Frontiers in Pharmacology, 2023)
